The target in assay [1] is IRAK4 auto-phosphorylation (Homo sapiens (Human), UniProt Q9NWZ3). The assay is described as follows: IRAK4 phosphorylation cell assay in IL-1β-stimulated Karpas-299 cells. The class given is cell-based. The note with it: IL-1β 22.7 ng/mL, pIRAK4 (Thr345/Ser346), geometric mean of at least 2 experiments. The protocol:
IRAK4 Phosphorylation Cell Assay
The activation of IRAK4 by TLR or IL-1R ligands leads to IRAK4 auto-phosphorylation, which can be prevented by IRAK4 kinase inhibitors. The effect of IRAK4 inhibitor compounds on IRAK4 auto-phosphorylation was assessed in IL-1β-stimulated Karpas-299 cells as a measurement of cellular potency. Karpas-299 cells were cultured in RPMI 1640 (Gibco 61870-010) containing 10% FBS (Gibco #10270). Cells were plated at 2×10^4 cells per well in poly-D-lysine coated 384 well plates (Corning #356663) to which compounds had been added at various concentrations (10 point half log dose response with a final top concentration of 30 μM) using an Echo 655 (Labcyte Inc). Cells were centrifuged (250 g, 4 mins), incubated at 37° C. for 1 h, then stimulated with 22.7 ng/mL recombinant IL-1β (R&D Systems, #201-LB-025) at 37° C. for 10 mins, followed by fixation in 4% paraformaldehyde for 10 mins and permeabilization in ice-cold 70% MeOH for 30 mins. Cells were washed twice with phosphate-buffered saline (PBS) on a BlueWasher (BlueCatBio) then blocked with PBS containing 10% FBS for 20 mins. Blocking solution was removed with a BlueWasher and cells were stained with anti-pIRAK4 (Thr345/Ser346) (CST, #11927, 1:400) in blocking buffer with 0.05% Tween-20 for 1 h, then washed twice with PBS containing 0.05% Tween-20 on a BlueWasher, followed by staining with a Alexa 647-conjugated secondary anti-rabbit IgG antibody (CST, #4414, 1:2,000) and Hoechst 33342 (Sigma, 1:2,000) in blocking buffer with 0.05% Tween-20 for 30 mins. Finally, the cells were washed twice with PBS containing 0.05% Tween-20 and imaged on an ImageXpress Micro (Molecular Devices) with a 10× air objective using the appropriate filters. Images were analysed in Columbus (PerkinElmer) and the fluorescence intensity per cell from the secondary antibody was quantified. The quantified data were analysed in Genedata Screener 15 (Genedata AG). […] IC50 values are the geometric mean of at least 2 experiments.

For assay [2], the target named is human recombinant IRAK4 protein (Homo sapiens (Human), UniProt Q9NWZ3). The assay is described as follows: IRAK4 enzyme assay (mass spectrometry readout). Type of assay: biochemical. The note with it: 3 mM ATP, 0.2 nM enzyme; geometric mean of at least n=2, * single experiment. As to the method: Potency of IRAK4 Inhibitor Compounds in IRAK4 Enzyme Assay
Chain of human recombinant IRAK4 protein (Q9NWZ3 whole entry): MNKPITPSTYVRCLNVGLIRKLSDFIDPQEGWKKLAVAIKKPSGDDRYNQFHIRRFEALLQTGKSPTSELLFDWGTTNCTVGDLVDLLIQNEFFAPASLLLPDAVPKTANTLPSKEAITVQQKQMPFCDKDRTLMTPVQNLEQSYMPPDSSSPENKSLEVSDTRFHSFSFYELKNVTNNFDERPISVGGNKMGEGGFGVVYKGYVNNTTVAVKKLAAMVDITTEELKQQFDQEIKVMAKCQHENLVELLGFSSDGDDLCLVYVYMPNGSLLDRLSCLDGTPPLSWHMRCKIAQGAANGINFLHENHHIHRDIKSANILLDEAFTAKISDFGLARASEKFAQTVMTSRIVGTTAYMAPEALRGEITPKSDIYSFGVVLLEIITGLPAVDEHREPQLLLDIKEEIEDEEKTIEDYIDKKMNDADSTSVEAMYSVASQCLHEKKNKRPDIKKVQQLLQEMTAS
The inhibitory activity of compounds against IRAK4 were determined in an enzymatic assay using mass spectrometry readout. Ten point half-log compound concentration response curves, with a top concentration of 1 μM or 10 μM, were generated from 10 mM stocks of compound solubilized in DMSO using an Echo 655 (Labcyte Inc) and added to 384 well assay plates (Greiner #781280). To the assay plates, 10 μL of human recombinant IRAK4 protein (Life Technologies #PV4002) diluted to a final concentration of 0.2 nM in assay buffer (50 mM Tris-HCl pH 7.4, 10 mM MgCl, 5 mM glutathione, 0.01% BSA, 3 mM ATP) was added. The enzyme was incubated with the compounds at room temperature for 15 minutes before a peptide substrate ([…], Innovagen custom synthesis, 10 mM in DMSO) was added to each well to a final concentration of 10 μM using an Echo 655 (Labcyte Inc). After two hours at room temperature, the reaction was stopped with 90 μL of 0.4% formic acid (Merck #33015). The unphosphorylated and phosphorylated peptide were measured by LC-MS/MS on a Waters TQ-S mass spectrometer. Peaks were integrated using the TargetLynx software and the ratios between phosphorylated and unphosphorylated peptides were calculated. Curves were fitted and compound potencies determined in Genedata Screener 15 (Genedata AG). Data presented are the geometric mean of at least n=2, or as denoted by an * are obtained from a single experiment.

This is an account of results in patent US11866405B2, “Substituted indazoles as IRAK4 inhibitors” (AstraZeneca AB, priority 2020, dated 2024).

Chain of IRAK4 auto-phosphorylation (Q9NWZ3 whole entry): as above

A word on the IC50: it is the midpoint of a concentration-inhibition curve. Turning to `CC1(O)CC2(CCC(n3cc4cc(C(=O)Nc5cnn6cccnc56)c(OC5CC5)cc4n3)CC2)C1` (single isomer, unassigned) [Example 15, 6-Cyclopropoxy-2-(2-hydroxy-2-methylspiro[3.5]nonan-7-yl)-N-(pyrazolo[1,5-a]pyrimidin-3-yl)-2H-indazole-5-carboxamide], the IC50 worked out at 0.091 µM in assay [1] and 0.0005 µM in assay [2].

Regarding `COc1cc2nn([C@H]3CCC(N(C)C(C)=O)C[C@@H]3C)cc2cc1C(=O)Nc1cnn2cccnc12` (single isomer, unassigned) [Example 63, 6-methoxy-2-((1S,2S,4R*)-2-methyl-4-(N-methylacetamido)cyclohexyl)-N-(pyrazolo[1,5-a]pyrimidin-3-yl)-2H-indazole-5-carboxamide], the IC50 in assay [1] was 0.338 µM; in assay [2], 0.0468 µM.

With `COc1cc2nn([C@H]3CC[C@H](O)C[C@@H]3C)cc2cc1C(=O)Nc1cnn2cccnc12` (single isomer, unassigned) [Example 39], the IC50 came to 0.16 µM in assay [1] and 0.01 µM in assay [2].

Regarding `COc1cc2nn([C@H]3CC[C@@]4(CC3)CC(=O)N(C)C4)cc2cc1C(=O)Nc1cnn2cccnc12` [Example 87, 6-methoxy-2-((5s,8s)-2-methyl-3-oxo-2-azaspiro[4.5]decan-8-yl)-N-(pyrazolo[1,5-a]pyrimidin-3-yl)-2H-indazole-5-carboxamide], the IC50 in assay [1] was 0.026 µM; in assay [2], 0.0002 µM.

Take `COc1cc2nn([C@H]3CC[C@H](N(C)C(=O)N4CC[C@H](O)C4)CC3)cc2cc1C(=O)Nc1cnc2cccnn12` [Example 116, 2-((1S,4r)-4-((S)-3-Hydroxy-N-methylpyrrolidine-1-carboxamido)cyclohexyl)-N-(imidazo[1,2-b]pyridazin-3-yl)-6-methoxy-2H-indazole-5-carboxamide]: the results for the IC50 in assay [1] and in assay [2] were 0.013 µM and 0.0003 µM, respectively.

As for “6-Cyclopropoxy-2-((1s,4s)-4-(N-methylacetamido)cyclohexyl)-N-(pyrazolo[1,5-a]pyrimidin-3-yl)-2H-indazole-5-carboxamide [Example 32]”, the IC50 in assay [1] was 0.257 µM; in assay [2], 0.0106 µM.

As to `COc1cc2nn([C@H]3CC[C@H](N(C)C(=O)C[C@@H](C)O)CC3)cc2cc1C(=O)Nc1cnn2cccnc12` [Example 111, 2-((1R,4r)-4-((R)-3-Hydroxy-N-methylbutanamido)cyclohexyl)-6-methoxy-N-(pyrazolo[1,5-a]pyrimidin-3-yl)-2H-indazole-5-carboxamide], the IC50 in assay [1] worked out at 0.027 µM; in assay [2], 0.0009 µM.

For the compound `COc1cc2nn([C@H]3CC[C@H](N(C)C(=O)[C@H](C)O)CC3)cc2cc1C(=O)Nc1cnn2cccnc12` [Example 59, 2-((1S,4r)-4-((S)-2-Hydroxy-N-methylpropanamido)cyclohexyl)-6-methoxy-N-(pyrazolo[1,5-a]pyrimidin-3-yl)-2H-indazole-5-carboxamide], the figures for the IC50 in assay [1] and in assay [2] were 0.04 µM and 0.0013 µM, respectively.

Take `COc1cc2nn([C@@H]3CC[C@H](O)C[C@H]3C)cc2cc1C(=O)Nc1cnc2cccnn12` [Example 88, 2-((1R,2R,4S)-4-hydroxy-2-methylcyclohexyl)-N-(imidazo[1,2-b]pyridazin-3-yl)-6-methoxy-2H-indazole-5-carboxamide]: the IC50 in assay [1] worked out at 0.044 µM; in assay [2], 0.0013 µM.

Consider `COc1cc2nn([C@H]3CC[C@H](N(C)C(=O)[C@@H](C)O)CC3)cc2cc1C(=O)Nc1cnc2cccnn12` [Example 95, 2-((1R,4r)-4-((R)-2-Hydroxy-N-methylpropanamido)cyclohexyl)-N-(imidazo[1,2-b]pyridazin-3-yl)-6-methoxy-2H-indazole-5-carboxamide], for which the IC50 stood at 0.007 µM in assay [1] and 0.0002 µM in assay [2].

For `COc1cc2nn(C3CCC(N(C)C(=O)C4CC(O)C4)CC3)cc2cc1C(=O)Nc1cnn2cnccc12` [Example 98, 2-((1R,4r)-4-((1s,3S)-3-hydroxy-N-methylcyclobutane-1-carboxamido)cyclohexyl)-6-methoxy-N-(pyrazolo[1,5-c]pyrimidin-3-yl)-2H-indazole-5-carboxamide], the IC50 is 0.02 µM in assay [1] and 0.0006 µM in assay [2].

Take `COc1cc2nn([C@H]3CC[C@H](N(C)C(=O)[C@@H](C)O)CC3)cc2cc1C(=O)Nc1cnn2cccnc12` [Example 58]: the IC50 in assay [1] was 0.016 µM; in assay [2], 0.0009 µM.

With `COc1cc2nn([C@H]3CC[C@@H](O)C[C@@H]3C)cc2cc1C(=O)Nc1cnc2cccnn12` [Example 90, 2-((1S,2S,4R)-4-hydroxy-2-methylcyclohexyl)-N-(imidazo[1,2-b]pyridazin-3-yl)-6-methoxy-2H-indazole-5-carboxamide], the IC50 worked out at 0.101 µM in assay [1] and 0.0052 µM in assay [2].

Regarding `COc1cc2nn([C@H]3CCC[C@@H](O)C3)cc2cc1C(=O)Nc1cnc2cccnn12` (single isomer, unassigned) [Example 9], the values for the IC50 in assay [1] and in assay [2] were 0.057 µM and 0.0016 µM, respectively.

Consider `C[C@H]1C[C@@H](O)CC[C@@H]1n1cc2cc(C(=O)Nc3cnn4cccnc34)c(OC3CC3)cc2n1` (single isomer, unassigned) [Example 44], for which the values for the IC50 in assay [1] and in assay [2] were 0.042 µM and 0.0008 µM, respectively.

Turning to `COc1cc2nn([C@H]3CC[C@@H](N(C)C(C)=O)CC3)cc2cc1C(=O)Nc1cnc2cccnn12` [Example 22, N-(Imidazo[1,2-b]pyridazin-3-yl)-6-methoxy-2-((1s,4s)-4-(N-methylacetamido)cyclohexyl)-2H-indazole-5-carboxamide], the values for the IC50 in assay [1] and in assay [2] were 0.268 µM and 0.0051 µM, respectively.

As for `O=C(Nc1cnn2cccnc12)c1cc2cn(C3CCC4(CC3)CC(O)C4)nc2cc1OC1CC1` (single isomer, unassigned) [Example 46, 6-Cyclopropoxy-2-(2-hydroxyspiro[3.5]nonan-7-yl)-N-(pyrazolo[1,5-a]pyrimidin-3-yl)-2H-indazole-5-carboxamide], the IC50 in assay [1] is 0.056 µM; in assay [2], 0.0006 µM.

As to `COc1cc2nn([C@H]3CC[C@H](N(C)C(=O)N4CC[C@@H](O)C4)CC3)cc2cc1C(=O)Nc1cnc2cccnn12` [Example 117, 2-((1R,4r)-4-((R)-3-Hydroxy-N-methylpyrrolidine-1-carboxamido)cyclohexyl)-N-(imidazo[1,2-b]pyridazin-3-yl)-6-methoxy-2H-indazole-5-carboxamide], the results for the IC50 in assay [1] and in assay [2] were 0.022 µM and 0.0003 µM, respectively.

`COc1cc2nn([C@@H]3CCC(N(C)C(C)=O)C[C@H]3C)cc2cc1C(=O)Nc1cnc2cccnn12` (single isomer, unassigned) [Example 36, N-(imidazo[1,2-b]pyridazin-3-yl)-6-methoxy-2-(1R,2R,4R*)-2-methyl-4-(N-methylacetamido)cyclohexyl)-2H-indazole-5-carboxamide]: the IC50 in assay [1] worked out at 0.056 µM; in assay [2] it was 0.0038 µM.

Turning to `COc1cc2nn([C@@H]3CC[C@]4(CC(=O)N(C)C4)C[C@H]3C)cc2cc1C(=O)Nc1cnc2cccnn12` (relative stereo) [Example 72, rel-2-(5R,7R,8R)-2,7-Dimethyl-3-oxo-2-azaspiro[4.5]decan-8-yl)-N-(imidazo[1,2-b]pyridazin-3-yl)-6-methoxy-2H-indazole-5-carboxamide or rel-2-(5R,7S,8S)-2,7-Dimethyl-3-oxo-2-azaspiro[4.5]decan-8-yl)-N-(imidazo[1,2-b]pyridazin-3-yl)-6-methoxy-2H-indazole-5-carboxamide], the values for the IC50 in assay [1] and in assay [2] were 0.007 µM and 0.0004 µM, respectively.
